Where two headings read alike, the source gives them in different places.
Legend:
human P2X3 receptor = human P2X3 receptor (Homo sapiens (Human), UniProt P56373); assay: Intracellular calcium measurement (FLIPR, Fluo-4) of antagonist activity at human P2X3 receptors; assay type: cell-based; conditions: read-out: hP2X3 IC50
Procedure: (§1) Intracellular Calcium Measurement to Assess Antagonist Activity at Human P2X3 and Human P2X2/3 Receptors
(§2) A fluorescent imaging plate reader (FLEX/FLIPR station; Molecular Devices) was used to monitor intracellular calcium levels using the calcium-chelating dye Fluo-4 (Molecular Probes). […] Cells expressing purinergic receptors P2X3 (human) or P2X2/3 (human) were plated at a density of 15,000 cells/well in collagen-coated 384-well plates approximately 20 hours before beginning the assay. […] The test compound was added in a volume of 5 μl and allowed to incubate for 30 min at 37° C. The final assay DMSO concentration is 1%. The agonist, α,β-Me-ATP, was added in a volume of 20 μl at a concentration representing the EC80 value. The fluorescence was measured for an interval of 90 sec at 2 sec intervals and analyzed based on the increase in peak relative fluorescence units (RFU) compared to the basal fluorescence. Peak fluorescence was used to determine the response to agonist obtained at each concentration of test compound by the following equation: % Response=100*(RFU(test compound)−RFU(control)/RFU(DMSO)−RFU(control))
(§3) The Examples were tested in triplicates per plate and mean values were plotted in Excel XLFit to determine IC50 values at the human P2X3 and human P2X2/3 receptors, percentage of maximal inhibition and the Hill coefficients.

human P2X2/3 receptor = human P2X2/3 receptor (Homo sapiens (Human), UniProt P56373+Q9UBL9); assay: Intracellular calcium measurement (FLIPR, Fluo-4) of antagonist activity at human P2X2/3 receptors; assay type: cell-based
human P2X2/3 receptor, sequence (P56373 whole entry): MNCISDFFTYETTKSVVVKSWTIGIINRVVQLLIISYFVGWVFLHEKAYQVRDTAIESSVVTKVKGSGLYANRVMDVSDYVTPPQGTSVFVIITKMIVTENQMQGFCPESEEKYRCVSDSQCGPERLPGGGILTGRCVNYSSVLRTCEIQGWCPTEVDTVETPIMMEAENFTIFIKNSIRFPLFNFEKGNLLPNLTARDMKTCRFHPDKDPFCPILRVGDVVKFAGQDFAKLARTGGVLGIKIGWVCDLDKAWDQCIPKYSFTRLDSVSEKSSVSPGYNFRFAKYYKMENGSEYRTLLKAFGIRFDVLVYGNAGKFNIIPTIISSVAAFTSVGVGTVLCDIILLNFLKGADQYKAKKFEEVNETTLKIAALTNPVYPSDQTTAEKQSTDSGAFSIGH
human P2X2/3 receptor, sequence (Q9UBL9 whole entry): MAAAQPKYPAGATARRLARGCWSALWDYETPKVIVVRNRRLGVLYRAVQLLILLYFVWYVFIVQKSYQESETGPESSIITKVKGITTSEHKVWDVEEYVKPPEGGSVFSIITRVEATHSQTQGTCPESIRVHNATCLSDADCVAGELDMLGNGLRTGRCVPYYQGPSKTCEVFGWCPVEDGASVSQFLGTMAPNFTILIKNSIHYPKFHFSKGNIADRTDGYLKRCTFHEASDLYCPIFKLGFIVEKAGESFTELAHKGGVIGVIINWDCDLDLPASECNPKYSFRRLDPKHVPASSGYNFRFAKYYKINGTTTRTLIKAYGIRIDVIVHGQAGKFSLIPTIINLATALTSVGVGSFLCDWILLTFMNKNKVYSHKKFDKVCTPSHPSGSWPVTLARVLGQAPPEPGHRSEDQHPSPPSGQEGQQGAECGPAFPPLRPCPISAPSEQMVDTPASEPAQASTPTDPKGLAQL
Procedure: as §1, §2, §3

[1] = human P2X3, FLIPR calcium assay, agonist α,β-Me-ATP
[2] = human P2X2/3, FLIPR calcium assay, agonist α,β-Me-ATP, read-out: hP2X2/3 IC50

human P2X3 receptor, sequence (P56373 whole entry): as the sequence (P56373 whole entry) above

SMILES | IC50 (human P2X3 receptor; [1]) | IC50 (human P2X2/3 receptor; [2]) | IC50 (human P2X3 receptor) | IC50 (human P2X2/3 receptor; hP2X2/3 IC50 (nM))
Cc1cnc(-c2cc(O[C@@H]3CCOC3)cc(C(=O)NC(C)c3ncc(F)cc3Cl)c2)s1 (stereo partly drawn) [Example 13, N-[1-(3-chloro-5-fluoropyridin-2-yl)ethyl]-3-(5-methyl-1,3-thiazol-2-yl)-5-[(3R)-tetrahydrofuran-3-yloxy]benzamide] | 21 nM | 1100 nM |  | 
Cc1cnc(-c2cc(O[C@@H]3CCOC3)cc(C(=O)NC(C)c3ncc(Cl)cc3F)c2)s1 (stereo partly drawn) [Example 14, N-[1-(5-chloro-3-fluoropyridin-2-yl)ethyl]-3-(5-methyl-1,3-thiazol-2-yl)-5-[(3R)-tetrahydrofuran-3-yloxy]benzamide] | 8 nM | 88 nM |  | 
Cc1cnc(-c2cc(O[C@@H]3CCOC3)cc(C(=O)N[C@H](C)c3ccc(Cl)cn3)c2)s1 [Example 15, N-[(1R)-1-(5-chloropyridin-2-yl)ethyl]-3-(5-methyl-1,3-thiazol-2-yl)-5-[(3R)-tetrahydrofuran-3-yloxy]benzamide] | 6 nM | 147 nM |  | 
Cc1ccc(CNC(=O)c2cc(O[C@@H]3CCOC3)cc(-c3ncc(C)s3)c2)nn1 [Example 17, N-[(6-methylpyridazin-3-yl)methyl]-3-(5-methyl-1,3-thiazol-2-yl)-5-[(3R)-tetrahydrofuran-3-yloxy]benzamide] | 35 nM | 1010 nM |  | 
Cc1ccc([C@@H](C)NC(=O)c2cc(O[C@@H]3CCOC3)cc(-c3ncc(C)s3)c2)nn1 [Example 18, N-[(1R)-1-(6-methylpyridazin-3-yl)ethyl]-3-(5-methyl-1,3-thiazol-2-yl)-5-[(3R)-tetrahydrofuran-3-yloxy]benzamide] | 34 nM | 427 nM |  | 
Cc1cnc(-c2cc(O[C@@H]3CCOC3)cc(C(=O)N[C@H](C)c3ccc(C(F)(F)F)nn3)c2)s1 [Example 19, 3-(5-Methyl-1,3-thiazol-2-yl)-5-[(3R)-tetrahydrofuran-3-yloxy]-N-{(1R)-1-[6-(trifluoromethyl)pyridazin-3-yl]ethyl}benzamide] | 19 nM | 749 nM |  | 
Cc1cnc(-c2cc(O[C@@H]3CCOC3)cc(C(=O)N[C@H](C)c3nnc(C)s3)c2)s1 [Example 20, N-[(1R)-1-(5-methyl-1,3,4-thiadiazol-2-yl)ethyl]-3-(5-methyl-1,3-thiazol-2-yl)-5-[(3R)-tetrahydrofuran-3-yloxy]benzamide] | 35 nM | 486 nM |  | 
Cc1cnc(-c2cc(O[C@@H]3CCOC3)cc(C(=O)NCc3ccc(C(F)(F)F)nn3)c2)s1 [Example 21, 3-(5-Methyl-1,3-thiazol-2-yl)-5-[(3R)-tetrahydrofuran-3-yloxy]-N-{[6-(trifluoromethyl)pyridazin-3-yl]methyl}benzamide] | 71 nM | 445 nM |  | 
CC[C@@H](NC(=O)c1cc(O[C@@H]2CCOC2)cc(-c2ncc(C)s2)c1)c1cnc(C(F)(F)F)nc1 [Example 22, 3-(5-Methyl-1,3-thiazol-2-yl)-5-[(3R)-tetrahydrofuran-3-yloxy]-N-{(1R)-1-[2-(trifluoromethyl)pyrimidin-5-yl]propyl}benzamide] | 132 nM | 987 nM |  | 
Cc1ncc([C@@H](C)NC(=O)c2cc(O[C@@H]3CCOC3)cc(-c3ncc(C)s3)c2)cn1 [Example 23, N-[(1R)-1-(2-Methylpyrimidin-5-yl)ethyl]-3-(5-methyl-1,3-thiazol-2-yl)-5-[(3R)-tetrahydrofuran-3-yloxy]benzamide] |  |  | 30 nM | 1110 nM
Cc1ccc([C@@H](C)NC(=O)c2cc(O[C@@H]3CCOC3)cc(-c3ncc(C)s3)c2)cn1 [Example 24, N-[(1R)-1-(6-Methylpyridin-3-yl)ethyl]-3-(5-methyl-1,3-thiazol-2-yl)-5-[(3R)-tetrahydrofuran-3-yloxy]benzamide] | 36 nM | 332 nM |  | 
Cc1ccc([C@@H](C)NC(=O)c2cc(O[C@H]3CCOC3)cc(-c3ncc(C)s3)c2)nn1 [Example 25, N-[(1R)-1-(6-Methylpyridazin-3-yl)ethyl]-3-(5-methyl-1,3-thiazol-2-yl)-5-[(3S)-tetrahydrofuran-3-yloxy]benzamide] | 39 nM | 975 nM |  | 
Cc1cnc(-c2cc(O[C@H]3CCOC3)cc(C(=O)N[C@H](C)c3ccc(Cl)cn3)c2)s1 [Example 27, N-[(1R)-1-(5-Chloropyridin-2-yl)ethyl]-3-(5-methyl-1,3-thiazol-2-yl)-5-[(3S)-tetrahydrofuran-3-yloxy]benzamide] | 25 nM | 280 nM |  | 
Cc1ccc([C@@H](C)NC(=O)c2cc(O[C@H]3CCOC3)cc(-c3ncc(C)s3)c2)nc1 [Example 28, N-[(1R)-1-(5-Methylpyridin-2-yl)ethyl]-3-(5-methyl-1,3-thiazol-2-yl)-5-[(3S)-tetrahydrofuran-3-yloxy]benzamide] | 48 nM | 121 nM |  | 
Cc1ccc([C@@H](C)NC(=O)c2cc(O[C@H]3CCOC3)cc(-c3ncc(C)s3)c2)cn1 [Example 30, N-[(1R)-1-(6-methylpyridin-3-yl)ethyl]-3-(5-methyl-1,3-thiazol-2-yl)-5-[(3S)-tetrahydrofuran-3-yloxy]benzamide] | 38 nM | 485 nM |  | 
C#CCOc1cc(C(=O)NCc2ccc(C)nn2)cc(-c2ncc(C)s2)c1 [Example 31, N-[(6-Methylpyridazin-3-yl)methyl]-3-(5-methyl-1,3-thiazol-2-yl)-5-(prop-2-yn-1-yloxy)benzamide] | 173 nM | ≥ 10000 nM |  | 
C#CCOc1cc(C(=O)N[C@H](C)c2ccc(C)nc2)cc(-c2ncc(C)s2)c1 [Example 33, N-[(1R)-1-(6-Methylpyridin-3-yl)ethyl]-3-(5-methyl-1,3-thiazol-2-yl)-5-(prop-2-yn-1-yloxy)benzamide] | 29 nM | 912 nM |  | 
C#CCOc1cc(C(=O)N[C@H](C)c2cnc(C)cn2)cc(-c2ncc(C)s2)c1 [Example 34, N-[(1R)-1-(5-Methylpyrazin-2-yl)ethyl]-3-(5-methyl-1,3-thiazol-2-yl)-5-(prop-2-yn-1-yloxy)benzamide] | 111 nM | 2120 nM |  | 
C#CCOc1cc(C(=O)NCc2cnc(C)cn2)cc(-c2ncc(C)s2)c1 [Example 35, N-[(5-Methylpyrazin-2-yl)methyl]-3-(5-methyl-1,3-thiazol-2-yl)-5-(prop-2-yn-1-yloxy)benzamide] | 460 nM | ≥ 10000 nM |  | 
C#CCOc1cc(C(=O)N[C@H](C)c2cnc(C(F)(F)F)nc2)cc(-c2ncc(C)s2)c1 [Example 36, 3-(5-Methyl-1,3-thiazol-2-yl)-5-(prop-2-yn-1-yloxy)-N-{(1R)-1-[2-(trifluoromethyl)pyrimidin-5-yl]ethyl}benzamide] | 14 nM | 306 nM |  | 
C#CCOc1cc(C(=O)N[C@H](C)c2ccc(C(F)(F)F)nn2)cc(-c2ncc(C)s2)c1 [Example 38, 3-(5-Methyl-1,3-thiazol-2-yl)-5-(prop-2-yn-1-yloxy)-N-[(1R)-1-[6-(trifluoromethyl)pyridazin-3-yl]ethyl]benzamide] | 55 nM | 1140 nM |  | 
C#CCOc1cc(C(=O)N[C@H](C)c2cnc(C)nc2)cc(-c2ncc(C)s2)c1 [Example 39, N-[(1R)-1-(2-Methylpyrimidin-5-yl)ethyl]-3-(5-methyl-1,3-thiazol-2-yl)-5-(prop-2-yn-1-yloxy)benzamide] | 81 nM | 1650 nM |  | 
CC#CCOc1cc(C(=O)N[C@H](C)c2cnc(C(F)(F)F)nc2)cc(-c2ncc(C)s2)c1 [Example 40, 3-(But-2-yn-1-yloxy)-5-(5-methyl-1,3-thiazol-2-yl)-N-[(1R)-1-[2-(trifluoromethyl)pyrimidin-5-yl]ethyl]benzamide] | 16 nM | 383 nM |  | 
CC#CCOc1cc(C(=O)N[C@H](C)c2nnc(C)s2)cc(-c2ncc(C)s2)c1 [Example 41, 3-(But-2-yn-1-yloxy)-N-[(1R)-1-(5-methyl-1,3,4-thiadiazol-2-yl)ethyl]-5-(5-methyl-1,3-thiazol-2-yl)benzamide] | 130 nM | 1590 nM |  | 
Cc1ncc([C@@H](C)NC(=O)c2cc(OC3COC3)cc(-c3ncc(C)s3)c2)cn1 [Example 43, N-[(1R)-1-(2-Methylpyrimidin-5-yl)ethyl]-3-(5-methyl-1,3-thiazol-2-yl)-5-(oxetan-3-yloxy)benzamide] | 50 nM | 2690 nM |  | 
Cc1cnc(-c2cc(OC3COC3)cc(C(=O)NC(C)c3ncc(Cl)cc3F)c2)s1 (centres unmarked) [Example 44, N-[1-(5-Chloro-3-fluoropyridin-2-yl)ethyl]-3-(5-methyl-1,3-thiazol-2-yl)-5-(oxetan-3-yloxy)benzamide] | 11 nM | 370 nM |  | 
Cc1ccc(CNC(=O)c2cc(OC3COC3)cc(-c3ncc(C)s3)c2)nn1 [Example 45, N-[(6-Methylpyridazin-3-yl)methyl]-3-(5-methyl-1,3-thiazol-2-yl)-5-(oxetan-3-yloxy)benzamide] | 212 nM | 1510 nM |  | 
Cc1cnc(-c2cc(OC3COC3)cc(C(=O)N[C@H](C)c3ccc(Cl)cn3)c2)s1 [Example 46, N-[(1R)-1-(5-Chloropyridin-2-yl)ethyl]-3-(5-methyl-1,3-thiazol-2-yl)-5-(oxetan-3-yloxy)benzamide] | 10 nM | 389 nM |  | 
